Patent EP0097202A1, “Hydrazinopyridazine compound, process for production thereof, and use thereof as medicament” (TEIKOKU HORMONE MFG. CO., LTD., priority 1982, dated 1984)
Read-outs that look alike come from different tables or passages of the source.

Tests used:
Format in all cases: in vivo, male Wistar rats
β1-adrenoceptors = biological target: T1, β1-adrenoceptors (Rattus norvegicus, UniProt P18090); assay: β-adrenoceptor blocking activity: inhibition of the isoproterenol-induced increase in heart rate in anesthetized rats; settings: iv, 0.05 h
T1 construct: Experiments were done using male Wistar rats weighing between 300 and 400 g, anesthetized with sodium pentobarbital; from tissue; host or cells: whole animal (anesthetized male Wistar rats), cardiac response in vivo
T1 sequence (P18090 whole entry): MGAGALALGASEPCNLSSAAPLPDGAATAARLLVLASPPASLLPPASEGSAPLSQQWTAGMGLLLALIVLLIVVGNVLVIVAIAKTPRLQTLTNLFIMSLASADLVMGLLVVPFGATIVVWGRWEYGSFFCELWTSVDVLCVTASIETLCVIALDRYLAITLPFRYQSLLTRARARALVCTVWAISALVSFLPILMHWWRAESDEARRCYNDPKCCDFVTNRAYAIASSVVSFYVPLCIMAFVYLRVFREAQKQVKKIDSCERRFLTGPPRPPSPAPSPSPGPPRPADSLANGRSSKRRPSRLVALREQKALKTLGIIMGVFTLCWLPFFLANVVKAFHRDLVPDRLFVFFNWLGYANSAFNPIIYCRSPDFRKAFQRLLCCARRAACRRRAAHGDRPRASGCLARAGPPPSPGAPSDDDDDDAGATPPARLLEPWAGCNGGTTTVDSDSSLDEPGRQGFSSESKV
Procedure: (§1) Experiments were done using male Wistar rats weighing between 300 and 400 g, anesthetized with sodium pentobarbital (60 mg/kg i.p.). The blood pressure was directly measured by connecting a cannula inserted in the femoral artery to a pressure transducer and the heart rate was calculated from the pulse waves of the blood pressure tracings. Each value shown here was obtained from three animals. The test compounds were individually dissolved in physiological saline solution or a 0.01 N aqueous solution of hydrochloric acid.
The increased heart rate before injection of the test compound was represented by H1. Three minutes after i.v. injection of the test compound, isoproterenol (0.1 µg/kg i.v.) was again administered and then the change in heart rate was measured. The maximum increase in heart rate after injection of the test compound was designated as H2. From these values, the percent inhibition of the change in heart rate was calculated in accordance with the following equation.
Percent inhibition of the heart rate [formula]
(§2) By repeating the procedure mentioned above at various doses of the test compounds, dose-response curves were prepared.

[1] = vasodilating activity (hypotensive activity): maximum fall in blood pressure in anesthetized rats; settings: maximum fall in blood pressure during 40 minutes after 1 mg/kg i.v., three animals
Procedure: as §1
Each test compound dissolved in physiological saline solution or 0.01 N hydrochloric acid was intravenously injected into rats in a fixed dose of 1 mg/kg and the blood pressure was continuously monitored for 40 minutes. The maximum fall in blood pressure during this period was determined and taken as the hypotensive activity of each compound.

β2-adrenoceptor = assay: β-adrenoceptor blocking activity: inhibition of the isoproterenol-induced fall in blood pressure in anesthetized rats; settings: 50 % inhibition of fall in blood pressure by isoproterenol 0.1 µg/kg i.v.
Procedure: as §1, §2

[2] = read-out: β-adrenoceptor blocking action ID50

Row | SMILES | ED50 (β1-adrenoceptors; [2]) [mg/kg] | Hypotensive action [1] | ED50 (β1-adrenoceptors; read-out: β-adrenoceptor blocking action ID50 β1) [mg/kg] | β-adrenoceptor blocking action ID50 β2 (β2-adrenoceptor)
1 | CC(C)(COc1ccc(NN)nn1)NCC(O)COc1ccccc1 (stereo not shown) [A, 1-penoxy-3-[1,1-dimethyl-2-(3-hydrozino-6-pyridazinyloxy)ethylamino]-2-propanol] | 0.04 | ++ (a fall in blood pressure of 25 to 34 mmHg) | – | –
2 | CC(C)NCC(O)COc1ccc(CC(N)=O)cc1 (stereo not shown) [Atenolol, reference compound] | – | – | 0.05 | 1.5 mg/kg i.v.
3 | CC(C)(COc1ccc(NN)nn1)NCC(O)COc1ccccc1Cl (stereo not shown) [B, 1-(2-chlorophenoxy)-3-[1,1-dimethyl-2-(3-hydrozino-6-pyridazinyloxy)ethylamino]-2-propanol] | 0.008 | +++ (35 mmHg or more) | – | 0.23 mg/kg i.v.
4 | Cc1ccccc1OCC(O)CNC(C)(C)COc1ccc(NN)nn1 (stereo not shown) [C, 1-(2-methylphenoxy)-3-[1,1-dimethyl-2-(3-hydrazino-6-pyridazinyloxy)ethylamino]-2-propanol] | 0.015 | +++ (35 mmHg or more) | – | 0.45 mg/kg i.v.
5 | CCc1ccccc1OCC(O)CNC(C)(C)COc1ccc(NN)nn1 (stereo not shown) [D, 1-(2-ethylphenoxy)-3-[1,1-dimethyl-2-(3-hydrazino-6-pyridazinyloxy)ethylamino]-2-propanol] | 0.2 | +++ (35 mmHg or more) | – | –
6 | CCCc1ccccc1OCC(O)CNC(C)(C)COc1ccc(NN)nn1 (stereo not shown) [E, 1-(2-propylphenoxy)-3-[1,1-dimethyl-2-(3-hydrazino-6-pyridazinyloxy)ethylamino]-2-propanol] | 0.2 | ++ (a fall in blood pressure of 25 to 34 mmHg) | – | –
7 | Cc1cccc(OCC(O)CNC(C)(C)COc2ccc(NN)nn2)c1Cl (stereo not shown) [F, 1-(2-chloro-3-methylphenoxy)-3-[1,1-dimethyl-2-(3-hydrazino-6-pyridazinyloxy)ethylamino]-2-propanol] | 0.08 | ++ (a fall in blood pressure of 25 to 34 mmHg) | – | –
8 | CC(C)=NNc1ccc(OCC(C)(C)NCC(O)COc2cc(C)ccc2Cl)nn1 (stereo not shown) [G, 1-(2-chloro-5-methylphenoxy)-3-[1,1-dimethyl-2-(3-isopropylidenehydrazino-6-pyridazinyloxy)ethylamino]-2-propanol] | 0.15 | ++ (a fall in blood pressure of 25 to 34 mmHg) | – | –
9 | Cc1ccc(Cl)c(OCC(O)CNC(C)(C)COc2ccc(NN)nn2)c1 (stereo not shown) [H, 1-(2-chloro-5-methylphenoxy)-3-[1,1-dimethyl-2-(3-hydrazino-6-pyridazinyloxy)ethylamino]-2-propanol] | 0.15 | ++ (a fall in blood pressure of 25 to 34 mmHg) | – | –
10 | CC(C)(COc1ccc(NN)nn1)NCC(O)COc1ccccc1C#N (stereo not shown) [I, 1-(2-cyanophenoxy)-3-[1,1-dimethyl-2-(3-hydrazino-6-pyridazinyloxy)ethylamino]-2-propanol] | 0.02 | +++ (35 mmHg or more) | – | 0.1 mg/kg i.v.
11 | CC(C)(COc1ccc(NN)nn1)NCC(O)COc1cc(Cl)ccc1C#N (stereo not shown) [J, 1-(2-cyano-5-chlorophenoxy)-3-[1,1-dimethyl-2-(3-hydrazino-6-pyridazinyloxy)ethylamino]-2-propanol] | 0.12 | ++ (a fall in blood pressure of 25 to 34 mmHg) | – | –
12 | Cc1ccc(C#N)c(OCC(O)CNC(C)(C)COc2ccc(NN)nn2)c1 (stereo not shown) [K, 1-(2-cyano-5-methylphenoxy)-3-[1,1-dimethyl-2-(3-hydrazino-6-pyridazinyloxy)ethylamino]-2-propanol] | 0.05 | +++ (35 mmHg or more) | – | 0.1 mg/kg i.v.
13 | COCc1ccccc1OCC(O)CNC(C)(C)COc1ccc(NN)nn1 (stereo not shown) [L, 1-(2-methoxymethylphenoxy)-3-[1,1-dimethyl-2-(3-hydrazino-6-pyridazinyloxy)ethylamino]-2-propanol] | 0.03 | +++ (35 mmHg or more) | – | –
14 | CCOCc1ccccc1OCC(O)CNC(C)(C)COc1ccc(NN)nn1 (stereo not shown) [M, 1-(2-ethoxymethylphenoxy)-3-[1;1-dimethyl-2-(3-hydrazino-6-pyridazinyloxy)ethylamino]-2-propanol] | 0.06 | ++ (a fall in blood pressure of 25 to 34 mmHg) | – | –
15 | COCCc1ccccc1OCC(O)CNC(C)(C)COc1ccc(NN)nn1 (stereo not shown) [N, 1-[2-(2-methoxyethyl)phenoxy]-3-[1,1-dimethyl-2-(3-hydrazino-6-pyridazinyloxy)ethylamino]-2-propanol] | 0.08 | +++ (35 mmHg or more) | – | –
16 | CCOCCc1ccccc1OCC(O)CNC(C)(C)COc1ccc(NN)nn1 (stereo not shown) [O] | 0.16 | ++ (a fall in blood pressure of 25 to 34 mmHg) | – | –
17 | C=CCOc1ccccc1OCC(O)CNC(C)(C)COc1ccc(NN)nn1 (stereo not shown) [P, 1-(2-allyloxyphenoxy)-3-[1,1-dimethyl-2-(3-hydrazino-6-pyridazinyloxy)ethylamino]-2-propanol] | 0.1 | ++ (a fall in blood pressure of 25 to 34 mmHg) | – | –
18 | Cc1ccccc1OCC(O)CNC(C)(C)CSc1ccc(NN)nn1 (stereo not shown) [Q, 1-(2-methylphenoxy)-3-[1,1-dimethyl-2-(3-hydrazino-6-pyridazinylthio)ethylamino]-2-propanol] | 0.04 | ++ (a fall in blood pressure of 25 to 34 mmHg) | – | –
19 | C#Cc1ccccc1OCC(O)CNC(C)(C)COc1ccc(NN)nn1 (stereo not shown) [R, 1-(2-ethinylphenoxy)-3-[1,1-dimethyl-2-(3-hydrazino-6-pyridazinyloxy)ethylamino]-2-propanol] | 0.02 | +++ (35 mmHg or more) | – | No antagonistic action at 0.1
